Data reported in patent US20070219186A1, “Pyrazolo[1,5-A]pyrimidine derivatives and methods of use thereof” (priority 2006, published 2007).
Like-named read-outs stand apart in the source and are kept apart here.

Target: T1, human B-Raf (Homo sapiens, UniProt P15056)
T1 construct: Flag; GST; made in house; host or cells: Sf9 insect cells (B-Raf); E. coli (MEK1-GST)
Assay: B-Raf Kinase to MEK1 ELISA
Type: biochemical
Conditions: for inhibition at 10 µM: read-out: % Inhib./10 uM
How it was run: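 Read-out is a DELFIA europium signal from phospho-MEK1 (Ser217/221) antibody after capture of GST-MEK1 (50 nM final) on anti-GST plates. Phosphorylation comes from Sf9-expressed Flag/GST human B-Raf (~20 ng) with ATP/MgCl2, 60 min RT, pH 7.2 MOPS.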

[1] = median, cpd concentrations from 10 μM to 30 nM in half log dilutions, read-out: Median IC50

T1 sequence (P15056 whole entry): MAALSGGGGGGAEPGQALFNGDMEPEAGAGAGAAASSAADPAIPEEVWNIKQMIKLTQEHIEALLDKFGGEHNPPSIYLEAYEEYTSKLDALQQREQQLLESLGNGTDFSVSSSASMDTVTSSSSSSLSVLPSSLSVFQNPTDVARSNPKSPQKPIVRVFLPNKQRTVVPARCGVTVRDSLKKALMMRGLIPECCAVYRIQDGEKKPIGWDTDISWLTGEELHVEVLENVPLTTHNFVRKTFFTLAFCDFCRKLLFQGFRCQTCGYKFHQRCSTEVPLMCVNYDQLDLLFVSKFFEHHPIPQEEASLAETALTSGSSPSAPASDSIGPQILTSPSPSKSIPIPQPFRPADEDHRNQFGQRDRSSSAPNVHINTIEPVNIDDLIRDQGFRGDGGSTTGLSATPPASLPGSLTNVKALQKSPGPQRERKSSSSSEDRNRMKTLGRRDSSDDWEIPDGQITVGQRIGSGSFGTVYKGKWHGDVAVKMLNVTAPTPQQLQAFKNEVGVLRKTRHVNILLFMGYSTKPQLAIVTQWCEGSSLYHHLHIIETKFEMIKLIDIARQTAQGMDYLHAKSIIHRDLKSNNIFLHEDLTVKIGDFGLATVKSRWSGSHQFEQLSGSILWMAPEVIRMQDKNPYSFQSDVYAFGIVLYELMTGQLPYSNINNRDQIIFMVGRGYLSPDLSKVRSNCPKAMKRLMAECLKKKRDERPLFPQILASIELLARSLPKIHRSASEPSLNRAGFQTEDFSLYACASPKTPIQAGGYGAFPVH

| IC50 [1] [µM] | inhibition at 10 µM [%] | IC50 [µM] | % Inhib./10 uM (single point assay, 10 uM) [%] | inhibition at 10 µM (single point assay, 10 uM) [%] | Molecule |
| --- | --- | --- | --- | --- | --- |
| 0.281 | 86 | – | – | – | Cn1cc(-c2cnn3c(-c4cccc(NC(=O)c5cccc(C(F)(F)F)c5)c4)ccnc23)cn1 [Example 308, N-{3-[3-(1-methyl-1H-pyrazol-4-yl)pyrazolo[1,5-a]pyrimidin-7-yl]phenyl}-3-(trifluoromethyl)benzamide] |
| > 10 | 7 | – | – | – | CCOC(=O)c1cnn2c(-c3cccc(NC(=O)c4cc(Cl)ccc4Br)c3)ccnc12 [Example 228, ethyl7-{3-[(2-bromo-5-chlorobenzoyl)amino]phenyl}pyrazolo[1,5-a]pyrimidine-3-carboxylate] |
| 4.99 | 59 | – | – | – | O=C(Nc1cccc(-c2ccnc3c(Br)cnn23)c1)Nc1ccc(F)c(C(F)(F)F)c1 [Example 167, N-[3-(3-bromopyrazolo[1,5-a]pyrimidin-7-yl)phenyl]-N′-[4-fluoro-3-(trifluoromethyl)phenyl]urea] |
| – | 71 | 4.49 | – | – | CC(=O)c1ccc(-c2cnn3c(-c4cccc(NC(=O)c5cccc(C(F)(F)F)c5)c4)ccnc23)cc1 [Example 300, N-{3-[3-(4-acetylphenyl)pyrazolo[1,5-a]pyrimidin-7-yl]phenyl}-3-(trifluoromethyl)benzamide] |
| > 10 | 0 | – | – | – | CCOC(=O)c1cnn2c(-c3cccc(NC(=O)c4cccn4C)c3)ccnc12 [Example 215, ethyl7-(3-{[(1-methyl-1H-pyrrol-2-yl)carbonyl]amino}phenyl)pyrazolo[1,5-a]pyrimidine-3-carboxylate] |
| 2.79 | 78 | – | – | – | CN(CCCN)c1cc(-c2cc3nccc(-c4cccc(NC(=O)c5cccc(C(F)(F)F)c5)c4)n3n2)ccn1 [Example 269, N-[3-(2-{2-[(3-aminopropyl)(methyl)amino]pyridin-4-yl}pyrazolo[1,5-a]pyrimidin-7-yl)phenyl]-3-(trifluoromethyl)benzamide] |
| 1.3 | 72 | – | – | – | O=C(Nc1cccc(-c2ccnc3c(-c4ccncc4)cnn23)c1)Nc1cccc(C(F)(F)F)c1 [Example 192, N-[3-(3-pyridin-4-ylpyrazolo[1,5-a]pyrimidin-7-yl)phenyl]-N′-[3-(trifluoromethyl)phenyl]urea] |
| 0.049 | 91 | – | – | – | CC(=O)NCC(=O)Nc1cccc(-c2cnn3c(-c4cccc(NC(=O)c5cccc(C(F)(F)F)c5)c4)ccnc23)c1 [Example 255, N-[3-(3-{3-[(N-acetylglycyl)amino]phenyl}pyrazolo[1,5-a]pyrimidin-7-yl)phenyl]-3-(trifluoromethyl)benzamide] |
| > 10 | 18 | – | – | – | CC(C)(C)OC(=O)N1CCN(c2cc3nccc(-c4cccc(NC(=O)c5cccc(C(F)(F)F)c5)c4)n3n2)CC1 [Example 206, tert-butyl 4-[7-(3-{[3-(trifluoromethyl)benzoyl]amino}phenyl)pyrazolo[1,5-a]pyrimidin-2-yl]piperazine-1-carboxylate] |
| > 10 | 6 | – | – | – | CCOC(=O)c1cc2nccc(-c3cccc(NC(=O)c4cccc(C(F)(F)F)c4)c3)n2n1 [Example 185, ethyl 7-(3-{[3-(trifluoromethyl)benzoyl]amino}phenyl)pyrazolo[1,5-a]pyrimidine-2-carboxylate] |
| > 10 | 30 | – | – | – | CCOC(=O)c1cnn2c(-c3cccc(NC(=O)c4nn(-c5ccccc5)nc4C)c3)ccnc12 [Example 220, ethyl7-(3-{[(5-methyl-2-phenyl-2H-1,2,3-triazol-4-yl)carbonyl]amino}phenyl)pyrazolo[1,5-a]pyrimidine-3-carboxylate] |
| 1.01 | 81 | – | – | – | O=C(Nc1cccc(-c2ccnc3c(-c4cccnc4)cnn23)c1)c1ccc(Cl)c(C(F)(F)F)c1 [Example 172, 4-chloro-N-[3-(3-pyridin-3-ylpyrazolo[1,5-a]pyrimidin-7-yl)phenyl]-3-(trifluoromethyl)benzamide] |
| 7.07 | 54 | – | – | – | CN(C)CCOC(=O)c1cnn2c(-c3cccc(NC(=O)c4cccc(C(F)(F)F)c4)c3)ccnc12 [Example 127, 2-(dimethylamino)ethyl 7-(3-{[3-(trifluoromethyl)benzoyl]amino}phenyl)pyrazolo[1,5-a]pyrimidine-3-carboxylate] |
| – | – | 0.842 | – | – | CN1CCN(CCCC#Cc2cnn3c(-c4cccc(NC(=O)c5cccc(C(F)(F)F)c5)c4)ccnc23)CC1 [Example 279, N-(3-{3-[5-(4-methylpiperazin-1-yl)pent-1-yn-1-yl]pyrazolo[1,5-a]pyrimidin-7-yl}phenyl)-3-(trifluoromethyl)benzamide] |
| 2.06 | 58 | – | – | – | CC(C)(C)OC(=O)n1cc(-c2cnn3c(-c4cccc(NC(=O)c5cccc(C(F)(F)F)c5)c4)ccnc23)cn1 [Example 276, tert-butyl 4-[7-(3-{[3-(trifluoromethyl)benzoyl]amino}phenyl)pyrazolo[1,5-a]pyrimidin-3-yl]-1H-pyrazole-1-carboxylate] |
| > 10 | 15 | – | – | – | CCOC(=O)c1cnn2c(-c3cccc(NC(=O)Nc4cc(C)no4)c3)ccnc12 [Example 247, ethyl7-[3-({[(3-methylisoxazol-5-yl)amino]carbonyl}amino)phenyl]pyrazolo[1,5-a]pyrimidine-3-carboxylate] |
| > 10 | 33 | – | – | – | O=C(Nc1cccc(-c2ccnc3cc(-c4ccncc4)nn23)c1)c1ccc(Cl)cc1 [Example 151, 4-chloro-N-[3-(2-pyridin-4-ylpyrazolo[1,5-a]pyrimidin-7-yl)phenyl]benzamide] |

Further lines, the molecule ahead of its results:

| Molecule | IC50 [1] [µM] | inhibition at 10 µM [%] | IC50 [µM] | % Inhib./10 uM (single point assay, 10 uM) [%] | inhibition at 10 µM (single point assay, 10 uM) [%] |
| --- | --- | --- | --- | --- | --- |
| CCOC(=O)c1cnn2c(-c3cccc(NC(=O)Nc4ccc(N5CCOCC5)c(Cl)c4)c3)ccnc12 [Example 84, ethyl 7-[3-({[(3-chloro-4-morpholin-4-ylphenyl)amino]carbonyl}amino)phenyl]pyrazolo[1,5-a]pyrimidine-3-carboxylate] | > 10 | 22 | – | – | – |
| CCOC(=O)c1cnn2c(-c3cccc(NC(=O)Cc4cccc(Br)c4)c3)ccnc12 [Example 92, ethyl 7-(3-{[(3-bromophenyl)acetyl]amino}phenyl)pyrazolo[1,5-a]pyrimidine-3-carboxylate] | > 10 | 97 | – | – | – |
| O=C(Nc1cccc(-c2ccnc3c(C(=O)Oc4cccnc4)cnn23)c1)c1cccc(C(F)(F)F)c1 [Example 126, pyridin-3-yl 7-(3-{[3-(trifluoromethyl)benzoyl]amino}phenyl)pyrazolo[1,5-a]pyrimidine-3-carboxylate] | > 10 | 17 | – | – | – |
| COCCCNC(=O)c1cnn2c(-c3cccc(NC(=O)c4cccc(C(F)(F)F)c4)c3)ccnc12 [Example 56, N-(3-methoxypropyl)-7-(3-{[3-(trifluoromethyl)benzoyl]amino}phenyl)pyrazolo[1,5-a]pyrimidine-3-carboxamide] | 1 | 60 | – | – | – |
| CCOC(=O)c1cnn2c(-c3ccc(F)c(NC(=O)c4cccc(C(F)(F)F)c4)c3)ccnc12 [Example 89, ethyl 7-(4-fluoro-3-{[3-(trifluoromethyl)benzoyl]amino}phenyl)pyrazolo[1,5-a]pyrimidine-3-carboxylate] | 2.17 | 65 | – | – | – |
| O=C(Nc1cccc(-c2ccnc3c(C(=O)Nc4cccnc4)cnn23)c1)c1cccc(C(F)(F)F)c1 [Example 47, N-pyridin-3-yl-7-(3-{[3-(trifluoromethyl)benzoyl]amino}phenyl)pyrazolo[1,5-a]pyrimidine-3-carboxamide] | > 10 | 35 | – | – | – |
| CCOC(=O)c1cnn2c(-c3cccc(NC(=O)Nc4ccc(C)c(C)c4)c3)ccnc12 [Example 42, ethyl 7-[3-({[(3,4-dimethylphenyl)amino]carbonyl}amino)phenyl]pyrazolo[1,5-a]pyrimidine-3-carboxylate] | 3.53 | 70 | – | – | – |
| CCOC(=O)c1cnn2c(-c3ccc(Cl)c(NC(=O)c4ccc(C)c(C(F)(F)F)c4)c3)ccnc12 [Example 106, ethyl 7-(4-chloro-3-{[4-methyl-3-(trifluoromethyl)benzoyl]amino}phenyl)pyrazolo[1,5-a]pyrimidine-3-carboxylate] | > 10 | 2 | – | – | – |
| Cc1ccc(C(=O)Nc2cccc(-c3ccnc4cc(-c5ccccc5)nn34)c2)cc1C(F)(F)F [Example 119, 4-methyl-N-[3-(2-phenylpyrazolo[1,5-a]pyrimidin-7-yl)phenyl]-3-(trifluoromethyl)benzamide] | > 10 | 29 | – | – | – |
| Cc1cc2nccc(-c3cccc(NC(=O)c4ccc(C)c(C(F)(F)F)c4)c3)n2n1 [Example 116, 4-methyl-N-[3-(2-methylpyrazolo[1,5-a]pyrimidin-7-yl)phenyl]-3-(trifluoromethyl)benzamide] | > 10 | 31 | – | – | – |
| N-{3-[3-(4-methoxyphenyl)pyrazolo[1,5-a]pyrimidin-7-yl]phenyl}-3-(trifluoromethyl)benzamide [Example 159] | > 10 | – | – | 5 | – |
| CCOC(=O)c1cnn2c(-c3cccc(NC(=O)c4cccc(OC)c4)c3)ccnc12 [Example 8, ethyl 7-{3-[(3-methoxybenzoyl)amino]phenyl}pyrazolo[1,5-a]pyrimidine-3-carboxylate] | > 10 | – | – | – | 28 |
| CCOC(=O)c1cnn2c(-c3cccc(NC(=O)Nc4ccc(Cl)c(Cl)c4)c3)ccnc12 [Example 40, ethyl 7-[3-({[(3,4-dichlorophenyl)amino]carbonyl}amino)phenyl]pyrazolo[1,5-a]pyrimidine-3-carboxylate] | 0.34 | 81 | – | – | – |
